Legend:
Type in all cases: in vivo
weeds [1] = assay: Pre-emergence test
Description: (§1) Solvent: 5 parts by weight of acetone
(§2) Emulsifier: 1 part by weight of alkylaryl polyglycol ether
(§3) To produce a suitable preparation of active compound, 1 part by weight of active compound is mixed with the stated amount of solvent, the stated amount of emulsifier is added and the concentrate is diluted with water to the desired concentration.
(§4) Seeds of the test plants are sown in normal soil. After about 24 hours, the soil is watered with the preparation of active compound. The amount of water per unit area is advantageously kept constant. The concentration of active compound in the preparation is immaterial, only the application rate of active compound per unit area matters.
(§5) After three weeks, the degree of damage to the plants is scored visually in % damage in comparison to the development of the untreated control.
(§6) 0%=no effect (like untreated control)

Galium [2] = assay: Pre-emergence test; conditions: greenhouse, after three weeks
Description: as §1, §2, §3, §4, §5, §6

Alopecurus [3] = assay: Pre-emergence test; conditions: greenhouse, after three weeks
Description: as §1, §2, §3, §4, §5, §6

Matricaria = assay: Pre-emergence test; conditions: greenhouse, 500 g of ai./ha, after three weeks
Description: as §1, §2, §3, §4, §5, §6

Cotton = assay: Pre-emergence test; conditions: greenhouse, 500 g of ai./ha, after three weeks
Description: as §1, §2, §3, §4, §5, §6

Digitaria = assay: Pre-emergence test; conditions: greenhouse, 500 g of ai./ha, after three weeks
Description: as §1, §2, §3, §4, §5, §6

Maize = assay: Pre-emergence test; conditions: greenhouse, 500 g of ai./ha, after three weeks
Description: as §1, §2, §3, §4, §5, §6

Abutilon [4] = assay: Pre-emergence test; conditions: Abutilon, 504 h, greenhouse, after three weeks, read-out: degree of damage to the plants (% damage), Abutilon; for pest or weed control at 1000 g/ha: 1000 g of ai./ha
Description: as §1, §2, §3, §4, §5, §6

weeds [5] = assay: Post-emergence test
Description: as §1, §2, §3
(§7) Test plants which have a height of 5-15 cm are sprayed with the preparation of active compound such that the particular amounts of active compounds desired are applied per unit area. The concentration of the spray liquor is chosen so that the particular amounts of active compound desired are applied in 1000 l of water/ha.
(§8) After three weeks, the degree of damage to the plants is scored visually in % damage, in comparison to the untreated control.
as §6

Datura = assay: Post-emergence test; conditions: greenhouse, 250 g of ai./ha, after three weeks
Description: as §1, §2, §3, §7, §8, §6

Wheat [6] = assay: Post-emergence test; conditions: greenhouse, 250 g of ai./ha, after three weeks
Description: as §1, §2, §3, §7, §8, §6

Ipomoea = assay: Post-emergence test; conditions: greenhouse, 250 g of ai./ha, after three weeks
Description: as §1, §2, §3, §7, §8, §6

Veronica [7] = assay: Post-emergence test; conditions: greenhouse, 250 g of ai./ha, after three weeks
Description: as §1, §2, §3, §7, §8, §6

Echinochloa = assay: Post-emergence test; conditions: greenhouse, 250 g of ai./ha, after three weeks
Description: as §1, §2, §3, §7, §8, §6

Abutilon [8] = assay: Post-emergence test; conditions: greenhouse, after three weeks
Description: as §1, §2, §3, §7, §8, §6

Solanum = assay: Pre-emergence test; conditions: greenhouse, 500 g of ai./ha, after three weeks
Description: as §1, §2, §3, §4, §5, §6

Wheat [9] = assay: Pre-emergence test; conditions: greenhouse, 500 g of ai./ha, after three weeks
Description: as §1, §2, §3, §4, §5, §6

Amaranthus [10] = assay: Pre-emergence test; conditions: Amaranthus, 504 h, greenhouse, 1000 g of ai./ha, after three weeks, read-out: degree of damage to the plants (% damage), Amaranthus
Description: as §1, §2, §3, §4, §5, §6

Viola = assay: Pre-emergence test; conditions: greenhouse, 500 g of ai./ha, after three weeks
Description: as §1, §2, §3, §4, §5, §6

Veronica [11] = assay: Pre-emergence test; conditions: greenhouse, 500 g of ai./ha, after three weeks
Description: as §1, §2, §3, §4, §5, §6

Setaria [12] = assay: Pre-emergence test; conditions: greenhouse, 1000 g of ai./ha, after three weeks
Description: as §1, §2, §3, §4, §5, §6

Chenopodium = assay: Pre-emergence test; conditions: greenhouse, 500 g of ai./ha, after three weeks
Description: as §1, §2, §3, §4, §5, §6

Amaranthus [13] = assay: Post-emergence test; conditions: Amaranthus, 504 h, greenhouse, 1000 g of ai./ha, after three weeks, read-out: degree of damage to the plants (% damage), Amaranthus
Description: as §1, §2, §3, §7, §8, §6

Galium [14] = assay: Post-emergence test; conditions: greenhouse, 1000 g of ai./ha, after three weeks
Description: as §1, §2, §3, §7, §8, §6

Xanthium [15] = assay: Post-emergence test; conditions: greenhouse, 1000 g of ai./ha, after three weeks
Description: as §1, §2, §3, §7, §8, §6

Setaria [16] = assay: Post-emergence test; conditions: Setaria, 504 h, greenhouse, 1000 g of ai./ha, after three weeks, read-out: degree of damage to the plants (% damage), Setaria
Description: as §1, §2, §3, §7, §8, §6

Sinapis [17] = assay: Pre-emergence test; conditions: greenhouse, 1000 g of ai./ha, after three weeks
Description: as §1, §2, §3, §4, §5, §6

Xanthium [18] = assay: Pre-emergence test; conditions: greenhouse, 1000 g of ai./ha, after three weeks
Description: as §1, §2, §3, §4, §5, §6

Cyperus = assay: Post-emergence test; conditions: greenhouse, 1000 g of ai./ha, after three weeks
Description: as §1, §2, §3, §7, §8, §6

Sinapis [19] = assay: Post-emergence test; conditions: greenhouse, 1000 g of ai./ha, after three weeks
Description: as §1, §2, §3, §7, §8, §6

Avena fatua = assay: Post-emergence test; conditions: greenhouse, 1000 g of ai./ha, after three weeks
Description: as §1, §2, §3, §7, §8, §6

Alopecurus [20] = assay: Post-emergence test; conditions: greenhouse, 1000 g of ai./ha, after three weeks
Description: as §1, §2, §3, §7, §8, §6

## CCC(CCc1ccccc1)Nc1nc(N)nc(C(C)(C)F)n1 (racemic) [Example 1, (R/S)-2-amino-4-(1-fluoro-1-methyl-ethyl)-6-(1-ethyl-3-phenyl-propylamino)-1,3,5-triazine]
Weeds [1]
  activity against weeds: strong activity
Galium [2]; 500 g of ai./ha
  degree of damage to the plants (% damage), Galium: 100%
Alopecurus [3]; 500 g of ai./ha
  degree of damage to the plants (% damage), Alopecurus: 100%
Matricaria
  degree of damage to the plants (% damage), Matricaria: 100%
Cotton
  degree of damage to the plants (% damage), Cotton: 0%
Digitaria
  degree of damage to the plants (% damage), Digitaria: 100%
Maize
  degree of damage to the plants (% damage), Maize: 0%
Abutilon [4]; 500 g of ai./ha
  pest or weed control at 500 g/ha: 100%
Weeds [5]
  activity against weeds: strong activity
Datura
  degree of damage to the plants (% damage), Datura: 100%
Wheat [6]
  degree of damage to the plants (% damage), Wheat: 0%
Ipomoea
  degree of damage to the plants (% damage), Ipomoea: 100%
Veronica [7]
  degree of damage to the plants (% damage), Veronica: 100%
Echinochloa
  degree of damage to the plants (% damage), Echinochloa: 80%
Abutilon [8]; 250 g of ai./ha
  degree of damage to the plants (% damage), Abutilon: 100%

## CCC(CCc1ccccn1)Nc1nc(N)nc(C(C)(C)F)n1 (stereo not drawn) [Example 22]
Weeds [1]
  activity against weeds: strong activity
Solanum
  degree of damage to the plants (% damage), Solanum: 100%
Wheat [9]
  degree of damage to the plants (% damage), Wheat: 0%
Amaranthus [10]
  pest or weed control at 1000 g/ha: 95%
Galium [2]; 1000 g of ai./ha
  degree of damage to the plants (% damage), Galium: 100%
Alopecurus [3]; 1000 g of ai./ha
  degree of damage to the plants (% damage), Alopecurus: 90%
Viola
  degree of damage to the plants (% damage), Viola: 100%
Cotton
  degree of damage to the plants (% damage), Cotton: 0%
Veronica [11]
  degree of damage to the plants (% damage), Veronica: 100%
Setaria [12]
  degree of damage to the plants (% damage), Setaria: 70%
Abutilon [4]
  pest or weed control at 1000 g/ha: 100%
Chenopodium
  degree of damage to the plants (% damage), Chenopodium: 100%
Weeds [5]
  activity against weeds: strong activity
Amaranthus [13]
  pest or weed control at 1000 g/ha: 95%
Galium [14]
  degree of damage to the plants (% damage), Galium: 80%
Xanthium [15]
  degree of damage to the plants (% damage), Xanthium: 70%
Setaria [16]
  pest or weed control at 1000 g/ha: 80%
Abutilon [8]; 1000 g of ai./ha
  degree of damage to the plants (% damage), Abutilon: 70%

## CCC(CCc1ccsc1)Nc1nc(N)nc(C(C)(C)F)n1 (stereo not drawn) [Example 33]
Weeds [1]
  activity against weeds: strong activity
Sinapis [17]
  degree of damage to the plants (% damage), Sinapis: 100%
Amaranthus [10]
  pest or weed control at 1000 g/ha: 100%
Alopecurus [3]; 1000 g of ai./ha
  degree of damage to the plants (% damage), Alopecurus: 100%
Xanthium [18]
  degree of damage to the plants (% damage), Xanthium: 90%
Setaria [12]
  degree of damage to the plants (% damage), Setaria: 100%
Abutilon [4]
  pest or weed control at 1000 g/ha: 90%
Weeds [5]
  activity against weeds: strong activity
Cyperus
  degree of damage to the plants (% damage), Cyperus: 90%
Sinapis [19]
  degree of damage to the plants (% damage), Sinapis: 100%
Amaranthus [13]
  pest or weed control at 1000 g/ha: 100%
Avena fatua
  degree of damage to the plants (% damage), Avena fatua: 100%
Alopecurus [20]
  degree of damage to the plants (% damage), Alopecurus: 80%
Setaria [16]
  pest or weed control at 1000 g/ha: 100%
Abutilon [8]; 1000 g of ai./ha
  degree of damage to the plants (% damage), Abutilon: 100%
